The source of these data is PubChem BioAssay AID248 (DTP/NCI, 2004).

Each structure is given as a SMILES string. Several values for one entry are separate records, joined by “and”; a condition that tells them apart may be missing. Equal entries are not always repeated. Inconclusive results and toxic doses are left out.

This experiment has as its system L1210 leukemia ip in BDF1 mice, survival T/C. The experiment can be described thus: NCI In Vivo Anticancer Drug Screen. Data for tumor model L1210 Leukemia (intraperitoneal) in B6D2F1 (BDF1) mice. The conditions noted are these: endpoint: mean survival time, higher = longer survival. The method, boiled down:
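Antitumor effect is assessed in tumor-bearing animals. Survival in the compound arm is compared with a vehicle-dosed control arm and expressed as their quotient.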

With `COc1cc2c3c(c4ccc(OC)c(OC)c4c2cc1OC)CN1CCC[C@@H]1C3`, the T/C runs as follows: (dose: 1.25 mg/kg/injection, schedule: Q01DX Z (im), vehicle: water) 103 % of control; (dose: 1.25 mg/kg/injection, schedule: Q01DX Z (ip), vehicle: water) 103 % of control; (dose: 1.25 mg/kg/injection, schedule: Q01DX Z (sc), vehicle: water) 106 % of control; (dose: 1.25 mg/kg/injection, schedule: Q02DX Z (ip), vehicle: water) 105 % of control; (dose: 2.2 mg/kg/injection, schedule: Q01DX Z (ip), vehicle: carboxymethylcellulose (CMC)) 111 % of control; (dose: 2.2 mg/kg/injection, schedule: Q01DX Z (ip), vehicle: other) 107 % of control. For the same compound, the T/C (dose: 2.5 mg/kg/injection, schedule: Q01DX Z (im), vehicle: water) is 111 % of control; the T/C (dose: 2.5 mg/kg/injection, schedule: Q01DX Z (ip), vehicle: water) was 94 % of control and 106 % of control; the T/C (dose: 2.5 mg/kg/injection, schedule: Q01DX Z (sc), vehicle: water) is 106 % of control; the T/C (dose: 2.5 mg/kg/injection, schedule: Q02DX Z (ip), vehicle: water) is 109 % of control; the T/C (dose: 2.5 mg/kg/injection, schedule: Q03DX Z (ip), vehicle: water) was 105 % of control; the T/C (dose: 4.0 mg/kg/injection, schedule: Q01DX Z (ip), vehicle: water) is 94 % of control. The T/C was 114 % of control and 117 % of control (dose: 4.4 mg/kg/injection, schedule: Q01DX Z (ip), vehicle: carboxymethylcellulose (CMC)); 106 % of control (dose: 5.0 mg/kg/injection, schedule: Q01DX005 (iv), vehicle: water); 118 % of control (dose: 5.0 mg/kg/injection, schedule: Q01DX Z (im), vehicle: water); 103 % of control and 117 % of control and 124 % of control (dose: 5.0 mg/kg/injection, schedule: Q01DX Z (ip), vehicle: water); 112 % of control and 115 % of control (dose: 5.0 mg/kg/injection, schedule: Q01DX Z (oral), vehicle: water); 122 % of control (dose: 5.0 mg/kg/injection, schedule: Q01DX Z (sc), vehicle: water). The T/C runs as follows: (dose: 5.0 mg/kg/injection, schedule: Q02DX Z (ip), vehicle: water) 95 % of control and 103 % of control; (dose: 5.0 mg/kg/injection, schedule: Q03DX Z (ip), vehicle: water) 103 % of control and 106 % of control; (dose: 6.0 mg/kg/injection, schedule: Q01DX Z (ip), vehicle: water) 109 % of control; (dose: 6.6 mg/kg/injection, schedule: Q01DX Z (ip), vehicle: carboxymethylcellulose (CMC)) 117 % of control and 118 % of control; (dose: 6.6 mg/kg/injection, schedule: Q01DX Z (ip), vehicle: other) 117 % of control; (dose: 7.5 mg/kg/injection, schedule: Q01DX Z (ip), vehicle: water) 115 % of control. Moreover, the T/C is 97 % of control and 101 % of control (dose: 8.0 mg/kg/injection, schedule: Q01DX Z (ip), vehicle: water); 120 % of control (dose: 9.0 mg/kg/injection, schedule: Q01DX Z (ip), vehicle: water); 114 % of control (dose: 10.0 mg/kg/injection, schedule: Q01DX005 (iv), vehicle: water); 97 % of control (dose: 10.0 mg/kg/injection, schedule: Q01DX Z (im), vehicle: water); 117 % of control (dose: 10.0 mg/kg/injection, schedule: Q01DX Z (ip), vehicle: water); 100 % of control (dose: 10.0 mg/kg/injection, schedule: Q01DX Z (sc), vehicle: water). Also, the T/C (dose: 10.0 mg/kg/injection, schedule: Q02DX Z (ip), vehicle: water) was 111 % of control and 112 % of control; the T/C (dose: 10.0 mg/kg/injection, schedule: Q02DX Z (oral), vehicle: water) is 121 % of control; the T/C (dose: 12.0 mg/kg/injection, schedule: Q01DX Z (ip), vehicle: water) is 114 % of control and 122 % of control; the T/C (dose: 12.5 mg/kg/injection, schedule: Q01DX Z (ip), vehicle: water) is 120 % of control; the T/C (dose: 15.0 mg/kg/injection, schedule: Q01DX Z (ip), vehicle: other) was 151 % of control; the T/C (dose: 15.0 mg/kg/injection, schedule: Q01DX Z (ip), vehicle: water) is 95 % of control. Also, the T/C is 106 % of control (dose: 20.0 mg/kg/injection, schedule: Q01DX001 (ip), vehicle: water); 98 % of control and 104 % of control (dose: 20.0 mg/kg/injection, schedule: Q01DX Z (ip), vehicle: water); 123 % of control (dose: 20.0 mg/kg/injection, schedule: Q07DX003 (ip), vehicle: water); 92 % of control (dose: 22.0 mg/kg/injection, schedule: Q01DX Z (ip), vehicle: carboxymethylcellulose (CMC)); 114 % of control (dose: 30.0 mg/kg/injection, schedule: Q01DX001 (ip), vehicle: water); 120 % of control (dose: 30.0 mg/kg/injection, schedule: Q02DX Z (ip), vehicle: water). Besides, the T/C is 90 % of control (dose: 30.0 mg/kg/injection, schedule: Q02DX Z (oral), vehicle: water); 124 % of control (dose: 30.0 mg/kg/injection, schedule: Q03DX Z (ip), vehicle: water); 103 % of control (dose: 30.0 mg/kg/injection, schedule: Q07DX003 (ip), vehicle: water); 114 % of control (dose: 33.0 mg/kg/injection, schedule: Q01DX Z (ip), vehicle: carboxymethylcellulose (CMC)); 114 % of control (dose: 40.0 mg/kg/injection, schedule: Q01DX001 (ip), vehicle: water); 98 % of control and 102 % of control (dose: 40.0 mg/kg/injection, schedule: Q01DX Z (ip), vehicle: water). Also, the T/C runs as follows: (dose: 40.0 mg/kg/injection, schedule: Q01DX Z (oral), vehicle: water) 92 % of control; (dose: 40.0 mg/kg/injection, schedule: Q03DX Z (ip), vehicle: water) 88 % of control; (dose: 80.0 mg/kg/injection, schedule: Q01DX001 (ip), vehicle: saline) 117 % of control; (dose: 80.0 mg/kg/injection, schedule: Q07DX Z (ip), vehicle: saline) 114 % of control; (dose: 160.0 mg/kg/injection, schedule: Q07DX Z (ip), vehicle: saline) 105 % of control.

Consider `CC(C)=Nc1cccc(B(O)O)c1`, for which the T/C is, setting by setting: (dose: 100.0 mg/kg/injection, schedule: Q01DX001 (ip), vehicle: saline) 98 % of control; (dose: 200.0 mg/kg/injection, schedule: Q01DX001 (ip), vehicle: saline) 88 % of control; (dose: 400.0 mg/kg/injection, schedule: Q01DX001 (ip), vehicle: saline) 95 % of control.

For the compound `CC(=O)Cc1nc(N)nc(Nc2ccc(Cl)c(Cl)c2)n1`, the T/C is 91 % of control (dose: 100.0 mg/kg/injection, schedule: Q04DX003 (ip), vehicle: saline with Tween-80); 96 % of control (dose: 200.0 mg/kg/injection, schedule: Q04DX003 (ip), vehicle: saline with Tween-80); 96 % of control (dose: 400.0 mg/kg/injection, schedule: Q04DX003 (ip), vehicle: saline with Tween-80).

For the compound `CC(C)(C)Nc1ccc(F)cc1`, the T/C is 106 % of control (dose: 100.0 mg/kg/injection, schedule: Q04DX002 (ip), vehicle: Klucel (hydroxypropylcellulose) (HPC)) and 95 % of control (dose: 200.0 mg/kg/injection, schedule: Q04DX002 (ip), vehicle: Klucel (hydroxypropylcellulose) (HPC)).

`CN(C)c1ccc2c(c1)C(=P(c1ccccc1)(c1ccccc1)c1ccccc1)c1ccccc1-2`: the T/C reads like this: (dose: 63.0 mg/kg/injection, schedule: Q01DX015 (ip), vehicle: carboxymethylcellulose (CMC)) 103 % of control; (dose: 100.0 mg/kg/injection, schedule: Q01DX001 (ip), vehicle: carboxymethylcellulose (CMC)) 97 % of control; (dose: 125.0 mg/kg/injection, schedule: Q01DX015 (ip), vehicle: carboxymethylcellulose (CMC)) 94 % of control; (dose: 200.0 mg/kg/injection, schedule: Q01DX001 (ip), vehicle: carboxymethylcellulose (CMC)) 101 % of control; (dose: 250.0 mg/kg/injection, schedule: Q01DX015 (ip), vehicle: carboxymethylcellulose (CMC)) 100 % of control; (dose: 400.0 mg/kg/injection, schedule: Q01DX001 (ip), vehicle: carboxymethylcellulose (CMC)) 90 % of control. Under “dose: 500.0 mg/kg/injection, schedule: Q01DX015 (ip), vehicle: carboxymethylcellulose (CMC)”, the T/C is 89 % of control.
